How the values were obtained:
Assay in all cases: Poly(I:C) treatment, interferon-stimulated gene expression (qPCR, RNA-seq)
Conditions in all cases: 50 μg/mL poly(I:C), 1 day
[1] = test system: primary adult human hepatocytes (Lonza, Gibco); format: cell-based
Description: (§1) RNA extraction and bulk-population RNA-seq. Cells were lysed using Zymo RNA lysis buffer and total RNA was extracted from cells using the Zymo Quick RNA kit per the manufacturer's instructions. High-quality RNA with RNA integrity number (RIN)>7 was used for library construction. For each cell-type, we included 2-3 technical replicates, generally defined as different wells of the same cell-type generated in the same differentiation experiment. In one experiment, 46 RNA-seq libraries were multiplexed and then sequenced on 2 lanes of the Illumina NovaSeq 6000 S4 sequencer by Novogene to generate 150-bp paired-end reads. In a second experiment, 36 RNA-seq libraries were multiplexed and then sequenced on 1 lane of the NovaS4 sequencer by Novogene to generate 150-bp paired-end reads.
Poly(I:C) treatment. HepG2 cells, HuH7 cells, metabolically-selected H1 hPSC-and H7 hPSC-derived hepatocytes, and primary human hepatocytes (Lonza and Gibco) were thawed in a 37° C. water bath for 3 minutes. After thawing, HepG2, HuH7, and hPSC-derived hepatocytes were quenched in warm DMEM/F12 to dilute the cryopreservation solution. After thawing, primary human hepatocytes, obtained from either Lonza or Gibco, were respectively quenched in MCHT50 and CHRM to dilute the cryopreservation solution. Thawed cells were centrifuged at 1500 rpm for 5 mins and the supernatant was discarded, leaving the cell pellets. […]

HepG2 liver cancer cells = format: cell-based, human
Description: as §1
(§2) Poly(I:C) treatment. HepG2 cells, HuH7 cells, metabolically-selected H1 hPSC-and H7 hPSC-derived hepatocytes, and primary human hepatocytes (Lonza and Gibco) were thawed in a 37° C. water bath for 3 minutes. After thawing, HepG2, HuH7, and hPSC-derived hepatocytes were quenched in warm DMEM/F12 to dilute the cryopreservation solution. After thawing, primary human hepatocytes, obtained from either Lonza or Gibco, were respectively quenched in MCHT50 and CHRM to dilute the cryopreservation solution. Thawed cells were centrifuged at 1500 rpm for 5 mins and the supernatant was discarded, leaving the cell pellets. The cell pellets were resuspended in the aforementioned hepatocyte maintenance media (Lonza hepatocyte culture medium supplemented with 10 μM Dexamethasone, 10 μM Forskolin, 2 μM RO4929097, 200 μg/ml AA2P, 10 μg/ml Insulin, and 1 μM Thiazovivin [DFRAIT]). For each cell-type, ~400,000 cells were plated per well of 24-well plate that had been coated with collagen 1 (Corning Biocoat). For hPSC-derived hepatocytes, the collagen 1-coated wells were briefly treated with Geltrex prior to plating cells. The media was replenished every day for 2 days and on the third day, hepatocyte maintenance media+ DFRAIT+50 μg/ml poly(I:C) was added for 24 hours. Cells were then lysed with RNA lysis buffer (Zymo) and processed with an RNA extraction kit (Zymo) to extract RNA for qPCR and RNA-seq.

HuH7 liver cancer cells = format: cell-based, human
Description: as §1, §2

[2] = test system: hPSC-derived hepatocytes (H1 and H7 hPSC lines); format: cell-based, human
Description: as §1, §2

Substance: poly(I:C)
- ISG and inflammatory cytokine expression change (RNA-seq) [1]: significant ISG and inflammatory cytokine upregulation
- upregulation of interferon-stimulated genes (qPCR) ([1]; two hepatocyte sources): upregulated ISGs
- ISG and inflammatory cytokine expression change (RNA-seq) (HepG2 liver cancer cells): minimal changes
- upregulation of interferon-stimulated genes (qPCR) (HepG2 liver cancer cells): largely failed to upregulate
- ISG and inflammatory cytokine expression change (RNA-seq) (HuH7 liver cancer cells): minimal changes
- upregulation of interferon-stimulated genes (qPCR) (HuH7 liver cancer cells): largely failed to upregulate
- ISG and inflammatory cytokine expression change (RNA-seq) [2]: significant ISG and inflammatory cytokine upregulation
- induction of interferon-stimulated genes MX1, VIPERIN, IFIT1, IFIT2, IFIT3, OAS1, OASL, ISG15 (qPCR) ([2]; H1- and H7-derived hepatocytes): strongly induced

— US20260258368A1, “METABOLIC SELECTION FOR GLYCOGEN-STORING CELLS IN VITRO” (The Board of Trustees of the Leland Stanford Junior …, priority 2023, published 2026)
